The record followed here is ChEMBL document CHEMBL1154077, “Carbonic anhydrase inhibitors. Inhibition studies of a coral secretory isoform by sulfonamides” (Bioorg Med Chem, 2009).

Molecules are shown by their SMILES.

Broadly, the Ki is a measure of affinity in units of concentration, obtained from inhibition or displacement. Low values mean higher affinity, high ones lower affinity.

For the assay, the target named is T1, Alpha carbonic anhydrase (Stylophora pistillata, UniProt B5SU02).
T1 sequence (B5SU02 whole entry): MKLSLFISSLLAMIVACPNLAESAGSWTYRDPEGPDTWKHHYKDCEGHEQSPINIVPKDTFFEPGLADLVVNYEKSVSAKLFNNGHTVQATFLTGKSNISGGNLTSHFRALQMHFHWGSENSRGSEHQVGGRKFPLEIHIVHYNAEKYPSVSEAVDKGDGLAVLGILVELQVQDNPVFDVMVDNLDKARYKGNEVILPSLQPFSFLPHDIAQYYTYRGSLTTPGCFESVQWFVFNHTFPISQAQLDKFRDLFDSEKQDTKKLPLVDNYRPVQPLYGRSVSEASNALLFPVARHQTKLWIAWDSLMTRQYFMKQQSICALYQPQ
Description: Inhibition of cloned Stylophora pistillata alpha-CA expressed in human HEK293 cells by stopped-flow CO2 assay
For the compound `NNc1ccccc1S(N)(=O)=O`, affinity was put at a Ki of 2510 nM.
Take `Nc1nnc(S(N)(=O)=O)s1`: the Ki stood at 105 nM.
The result for `Nc1ccc(S(=O)(=O)NCc2ccc(S(N)(=O)=O)cc2)cc1` reads 29.8 nM.
Next, `Nc1cc(Cl)c(S(N)(=O)=O)cc1S(N)(=O)=O`: 295 nM; `Nc1ccc(S(N)(=O)=O)cc1I`: 88.3 nM.
Next, `Nc1ccc(S(=O)(=O)Nc2nnc(S(N)(=O)=O)s2)cc1`: 27.6 nM; `Nc1nccc(Nc2ccc(S(N)(=O)=O)cc2)n1`: 25.4 nM.
The compound `Nc1ccc(S(N)(=O)=O)cc1Br` had a Ki of 104 nM.
`Cn1nc(S(N)(=O)=O)sc1=N` yielded a Ki of 91.9 nM.
The result for `NS(=O)(=O)c1ccc(CCO)cc1` reads 770 nM; that for `Nc1ccc(S(N)(=O)=O)cc1F`, 75.1 nM.
Next, `NS(=O)(=O)c1ccc(CO)cc1`: 768 nM; `NCCc1ccc(S(N)(=O)=O)cc1`: 94.3 nM.
Next, `Nc1ccc(S(N)(=O)=O)cc1Cl`: 87.5 nM; `Nc1ccc(S(=O)(=O)NCCc2ccc(S(N)(=O)=O)cc2)cc1`: 19.7 nM.
On to `NS(=O)(=O)c1ccc(S(=O)(=O)Nc2cccc3c(Cl)c[nH]c23)cc1`, for which the Ki turned out to be 163 nM.
The result for `Nc1cc(C(F)(F)F)c(S(N)(=O)=O)cc1S(N)(=O)=O` [2,4-DISULFAMYLTRIFLUOROMETHYLANILINE] reads 367 nM.
Next, `NS(=O)(=O)c1nnc(NS(=O)(=O)c2ccccc2)s1` [BENZOLAMIDE]: 20.4 nM; `CCN[C@H]1CN(CCCOC)S(=O)(=O)c2sc(S(N)(=O)=O)cc21` [BRINZOLAMIDE]: 48.2 nM; `NS(=O)(=O)c1ccc(C(=O)O)cc1` [CARZENIDE]: 435 nM.
On to `Cc1ccc(-c2cc(C(F)(F)F)nn2-c2ccc(S(N)(=O)=O)cc2)cc1` [CELECOXIB], for which the Ki turned out to be 34.2 nM.
The result for `NCc1ccc(S(N)(=O)=O)cc1` [MAFENIDE] reads 82.5 nM; that for `Cc1ccc(S(N)(=O)=O)cc1` [P-TOLUENESULFONAMIDE], 614 nM; that for `O=C1NS(=O)(=O)c2ccccc21` [SACCHARIN], 40.3 nM.
Compound `Nc1ccc(S(N)(=O)=O)cc1` [SULFANILAMIDE] had a Ki of 364 nM.
The result for `CC1(C)O[C@@H]2[C@@H](CO[C@@]3(COS(N)(=O)=O)OC(C)(C)O[C@@H]23)O1` [TOPIRAMATE] reads 29.1 nM.
